Assay results reported in patent EP0017679B1, “Pyridylalkylpyrimidone compounds, process for preparing them and pharmaceutical compositions containing them” (SMITH KLINE & FRENCH LABORATORIES LIMITED, priority 1979, dated 1980).

Tested on: mice
Assay: acute toxicity (LD50) after bolus intravenous administration
Assay type: in vivo
Settings: ratio to the analogue lacking the 6-substituent (or 5- and 6-substituents) in the pyridyl group
From the text: The compounds of Structure (2) have particularly good histamine H,- and H2- antagonist activity and are less acutely toxic in mice (when administered intravenously) than the corresponding compounds of Structure (2) in which R is hydrogen. This decrease in acute toxicity is in general is not accompanied by a reduction in histamine H1-antagonist activity or histamine H2-antagonist activity. […] (LD50 is the minimum dose which kills 50% of mice after bolus intravenous administration of the test compound).

SMILES	LD50 value compared with the corresponding 5-(3-pyridylmethyl) analogue
COc1cccnc1CCCCNc1ncc(Cc2ccc(C)nc2)c(=O)[nH]1 [Example 1, 2-[4-(3-methoxy-2-pyridyl)butylamino]-5-(6-methyl-3-pyridylmethyl)-4-pyrimidone]	at least three
Cc1ccc(Cc2cnc(NCCSCc3nc[nH]c3C)[nH]c2=O)cn1 [Example 2, 2-[2-(5-methyl-4-imidazolylmethylthio)ethylamino]-5-(6-methyl-3-pyridylmethyl)-4-pyrimidone]	at least three
Cc1ccc(Cc2cnc(NCCCCc3ncccc3Cl)[nH]c2=O)cn1 [Example 7, 2-[4-(3-chloro-2-pyridyl)butylamino]-5-(6-methyl-3-pyridyImethyl)-4-pyrimidone]	at least three
Cc1ccc(Cc2cnc(NCCSCc3nccs3)[nH]c2=O)cn1 [Example 9, 2-[2-(2-thiazolylmethylthio)ethylamino]-5-(6-methyl-3-pyridylmethyl)-4-pyrimidone]	at least three
Cc1cc(Cc2cnc(NCCSCc3ncccc3Br)[nH]c2=O)cnc1C [Example 11, 2-[2-(3-bromo-2-pyridylmethylthio)ethylamino]-5-(5,6-dimethyl-3-pyridylmethyl)-4-pyrimidone]	at least three
COc1ccc(Cc2cnc(NCCSCc3nc[nH]c3C)[nH]c2=O)cn1 [Example 13, 2-[2-(5-methyl-4-imidazolylmethylthio)ethylamino]-5-(6-methoxy-3-pyridyImethyl)-4-pyrimidone]	at least three
